pIC50: −log10 of the molar value.
Legend:
lignée MCF-7P = test: MTT cytotoxicity test (cell viability); format: cell-based, humaines; settings: MCF7-P variant cells; 5 days incubation with compound; MTT readout at 550 nm; calculated from points of Figures 1A, 1B and 2 between 5.10^-7 and 10^-5 moles/l; read-out: IC50 (µmole) MCF7-P
Description: (§1) L'évaluation de la cytotoxicité des isomères "trans" et "cis" du 1-[4-(2-diméthylaminoéthoxy) phényl]-1-(4-hydroxyphényl)-2-ferrocényl-1-butène a fait l'objet de tests sur des lignées de cellules humaines dérivées d'une effusion pleurale d'un adénocarcinome mammaire (lignée MCF-7 ATCC HTB) ainsi que de l'un de ses variants (lignée MCF-7P).
(§2) Ces cellules ont été préalablement cultivées dans du milieu Dulbecco MEM additionné de 10% de sérum de veau foetal et en atmosphère humide (90% d'humidité relative) comprenant 5% de CO2. En phase exponentielle de croissance, ces cellules ont été trypsinées et repiquées dans des plaques de 24 puits de 1 ml à raison de 2.10^5 cellules par puits.
(§3) Après 3 jours d'incubation, les composés à tester ont été ajoutés aux doses appropriées et les plaques ont été mises à incuber pendant 5 jours.
(§4) A l'issue de cette incubation, la viabilité cellulaire des cultures a été déterminée à l'aide du test dit "MTT" consistant à ajouter dans chaque puits 20 µl d'une solution contenant 5 mg de bromure de (diméthyl-4,5-thiazol-2-yl)diphényl-2,5-tétrazolium (MTT) dans 1 ml de tampon PBS, et à laisser incuber les plaques pendant 1 heure à 37°C dans des conditions atmosphériques identiques à celles définies ci-dessus. Le MTT est métabolisé dans les cellules vivantes en un composé bleu insoluble (formazan).
(§5) A l'issue de cette incubation, les puits sont lavés à l'aide de PBS pour éliminer le MTT et les cristaux résiduels de formazan sont repris dans 1 ml de DMSO. La concentration en formazan pour chaque puits est lue par photométrie à une longueur d'onde de 550 nm et comparée à un témoin correspondant à du milieu incubé en présence de MTT mais en l'absence de cellules.

lignée MCF-7 ATCC HTB = test: MTT cytotoxicity test (cell viability); format: cell-based, humaines; settings: MCF7 ATCC cells; 5 days incubation with compound; MTT readout at 550 nm; calculated from points of Figures 1A, 1B and 2 between 5.10^-7 and 10^-5 moles/l; read-out: IC50 (µmole) MCF7 ATCC
Description: as §1, §2, §3, §4, §5

| Structure (SMILES) | pIC50 (lignée MCF-7P) | pIC50 (lignée MCF-7 ATCC HTB) |
| --- | --- | --- |
| CCC(=C(c1ccc(O)cc1)c1ccc(OCCN(C)C)cc1)[c-]1cccc1.[Fe+2].c1cc[cH-]c1 [Dérivé "cis", 1-[4-(2-diméthylaminoéthoxy)phényl]-1-(4-hydroxyphényl)-2-ferrocényl-1-butène] | 5.25 | 5.47 |
| CCC(=C(c1ccc(O)cc1)c1ccc(OCCN(C)C)cc1)[c-]1cccc1.[Fe+2].c1cc[cH-]c1 [Dérivé "trans", 1-[4-(2-diméthylaminoéthoxy)phényl]-1-(4-hydroxyphényl)-2-ferrocényl-1-butène] | 5.70 | 5.31 |

From patent EP0804445B1, “METALLOCENIC […] DERIVATIVES, METHODS FOR THEIR PREPARATION AND PHARMACEUTICAL COMPOSITIONS CONTAINING SAME” (Modelisation et Mise au Point de Molecules Medicanales - …, priority 1994, dated 1996)
